According to the supplement of paper PMC4862054:
Where “and” joins values, the source holds several entries; their conditions need not be identical. Identical values can stand only once.

Key:
[1] = system: HCC1143; test: normalised viability (% of control), CellTiter-Blue; higher = more viable cells (about 100 = DMSO control); conditions: incubation time: 72 h
Summary of the method: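 Breast cancer cell lines were treated for 72 h in 384-well format and measured by CellTiter-Blue fluorescence at 560/590 nm. Results were normalised per plate to vehicle (100) and a positive kill control (0). The entry is normalised viability at a single listed concentration of the series.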

[2] = system: Hs578T; conditions: 72 h
Summary of the method: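 Breast cancer cell lines (20 µl suspension) were seeded into 384-well plates holding compound at 5 concentrations in 10-fold steps over a compound-specific 10,000-fold range, then incubated 72 h. Cell death was read first by CellTox Green fluorescence (485/520 nm), then viability by CellTiter-Glo luminescence after 10 min at room temperature. Each plate was normalised to 0.1 % DMSO and a positive kill control. EC50 was fitted from the dose-response curves and censored at the top concentration.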

[3] = system: HDQ-P1; test: normalised viability (% of control), CellTiter-Blue; higher = more viable cells (about 100 = DMSO control); conditions: incubation time: 72 h
Experimental: (§1)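 DSRT, CellTiter-Blue viability, 72 h incubation. Signal is normalised to DMSO and benzethonium chloride controls. Value is the normalised response at dose 9.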

[4] = system: CAL-51; test: as above; conditions: incubation time: 72 h
Experimental: as §1

[5] = system: MDA-MB-453; test: as above; conditions: incubation time: 72 h
Experimental: as §1

[6] = system: CAL-85-1; test: as above; conditions: incubation time: 72 h
Experimental: as §1

[7] = system: CAL-148; test: as above; conditions: incubation time: 72 h
Experimental: as §1

[8] = system: DU-4475; test: as above; conditions: incubation time: 72 h
Experimental: as §1

[9] = system: HDQ-P1; test: normalised response (% of control), CellTiter-Glo; higher = more viable cells (100 = DMSO, 0 = benzethonium chloride kill control); conditions: incubation time: 72 h
Summary of the method: (§2)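 The table gives the normalised signal for a single concentration in each entry. Breast cancer cell lines were seeded (20 µl suspension) into 384-well plates holding compound at 5 concentrations in 10-fold steps over a compound-specific 10,000-fold range and incubated 72 h, then read for CellTox Green fluorescence (485/520 nm) and CellTiter-Glo luminescence. Normalisation on each plate used 0.1 % DMSO (100) and a positive kill control (0).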

[10] = system: MDA-MB-436; test: as above; conditions: incubation time: 72 h
Summary of the method: as §2

[11] = system: SK-BR-3; test: as above; conditions: incubation time: 72 h
Summary of the method: as §2

[12] = system: CAL-51; test: as above; conditions: incubation time: 72 h
Summary of the method: as §2

[13] = system: MDA-MB-453; test: as above; conditions: incubation time: 72 h
Summary of the method: as §2

[14] = system: BT-474; test: as above; conditions: incubation time: 72 h
Summary of the method: as §2

[15] = system: MCF-10A; test: as above; conditions: incubation time: 72 h
Summary of the method: as §2

[16] = system: MFM-223; test: as above; conditions: incubation time: 72 h
Summary of the method: as §2

[17] = system: CAL-85-1; test: as above; conditions: incubation time: 72 h
Summary of the method: as §2

[18] = system: MDA-MB-231; test: as above; conditions: incubation time: 72 h
Summary of the method: as §2

[19] = system: HCC1143; test: as above; conditions: incubation time: 72 h
Summary of the method: as §2

[20] = system: HCC1599; test: as above; conditions: incubation time: 72 h
Summary of the method: as §2

[21] = system: CAL-120; test: as above; conditions: incubation time: 72 h
Summary of the method: as §2

[22] = system: CAL-148; test: as above; conditions: incubation time: 72 h
Summary of the method: as §2

[23] = system: BT-549; test: as above; conditions: incubation time: 72 h
Summary of the method: as §2

[24] = system: Hs578T; test: as above; conditions: incubation time: 72 h
Summary of the method: as §2

[25] = system: HCC1937; test: as above; conditions: incubation time: 72 h
Summary of the method: as §2

[26] = system: MDA-MB-468; test: as above; conditions: incubation time: 72 h
Summary of the method: as §2

[27] = system: DU-4475; test: as above; conditions: incubation time: 72 h
Summary of the method: as §2

| Compound | normalised viability ([1]; 100 nM) | normalised viability [3] | normalised viability [4] | normalised viability [5] | normalised viability [6] | normalised viability [7] | normalised viability [8] | further results |
| --- | --- | --- | --- | --- | --- | --- | --- | --- |
| O=C(CCBr)N1CCN(C(=O)CCBr)CC1 [Pipobroman] | 87.8% | – | – | – | – | – | – | – |
| CNC(=O)c1cc(Oc2ccc(NC(=O)Nc3ccc(Cl)c(C(F)(F)F)c3)cc2)ccn1 [Sorafenib] | – | – | – | – | – | – | – | normalised viability ([1]; 10 nM): 101% and 80.6% |
| Cc1c(CN2CCN(C(=O)[C@H](C)O)CC2)sc2c(N3CCOCC3)nc(-c3cnc(N)nc3)nc12 [GDC-0980] | 71.5% | – | – | – | – | – | – | EC50, CellTiter-Glo [2]: 445 nM |
| O=C1c2c(O)ccc(O)c2C(=O)c2c(NCCNCCO)ccc(NCCNCCO)c21 [Mitoxantrone] (1000 nM) | – | 48.9% | 16.9% | 31% | 34% | 7.8% | 0.48% | – |
| O=C(Nc1c[nH]nc1-c1nc2ccc(CN3CCOCC3)cc2[nH]1)NC1CC1 [AT9283] | 72.8% | – | – | – | – | – | – | EC50, CellTiter-Glo [2]: 157 nM |
| c1cc(CN2CCCNCCNCCCNCC2)ccc1CN1CCCNCCNCCCNCC1 [Plerixafor] | – | – | – | – | – | – | – | normalised viability ([1]; 25 nM): 83.4% |
| Cn1cc(CNCC2CCN(c3ncc(C(=O)NO)cn3)CC2)c2ccccc21 | – | – | – | – | – | – | – | normalised viability ([1]; 10 nM): 64.8% |
| COc1cc(CCc2cc(NC(=O)c3ccc(N4CC(C)NC(C)C4)cc3)n[nH]2)cc(OC)c1 (stereo not drawn) [AZD4547] | – | – | – | – | – | – | – | normalised viability ([1]; 10 nM): 86.9% |
| C[C@]12C=CC(=O)C=C1CC[C@@H]1[C@@H]2[C@@H](O)C[C@@]2(C)[C@H]1CC[C@]2(O)C(=O)CO [Prednisolone] (10000 nM) | – | 120% | 103% | 79.8% | 109% | 99.2% | 102% | – |
| CC[C@@]1(O)C(=O)OCc2c1cc1n(c2=O)Cc2cc3c(CN(C)C)c(O)ccc3nc2-1 [Topotecan] (1000 nM) | – | 77.7% | 15.6% | 44.6% | 37.5% | 13.8% | 12.4% | normalised response [9]: 86.9%; normalised response [10]: 42.6%; normalised response [11]: 47.6%; normalised response [12]: 48%; normalised response [13]: 87.6%; normalised response [14]: 81.8%; normalised response [15]: 79.2%; normalised response [16]: 91.4%; normalised response [17]: 50.1%; normalised response [18]: 81.6%; normalised response [19]: 55.1%; normalised response [20]: 24.1%; normalised response [21]: 75.6%; normalised response [22]: 24.3%; normalised response [23]: 51.5%; normalised response [24]: 99.1%; normalised response [25]: 79.3%; normalised response [26]: 11.1%; normalised response [27]: 38.4% |
| Cc1ccc(Nc2nccc(N(C)c3ccc4c(C)n(C)nc4c3)n2)cc1S(N)(=O)=O [Pazopanib] | 85.8% | – | – | – | – | – | – | EC50, CellTiter-Glo [2]: > 10000 nM |
| CS(=O)(=O)N1CCN(Cc2cc3nc(-c4cccc5[nH]ncc45)nc(N4CCOCC4)c3s2)CC1 [GDC-0941] | 81.9% | – | – | – | – | – | – | – |
| CS(=O)(=O)N1CCN(Cc2cc3nc(-c4cccc5[nH]ncc45)nc(N4CCOCC4)c3s2)CC1 [Pictilisib] | – | – | – | – | – | – | – | EC50, CellTiter-Glo [2]: 1890 nM |
| Cc1cccc(-c2nn3c(c2-c2ccnc4ccc(C(N)=O)cc24)CCC3)n1 | – | – | – | – | – | – | – | normalised viability ([1]; 10 nM): 91% |
| Cc1c(CN2CCN(C(=O)[C@H](C)O)CC2)sc2c(N3CCOCC3)nc(-c3cnc(N)nc3)nc12 [GDC-0980] (10000 nM) | – | 10.9% | 3.17% | 3.22% | 15.2% | 3.74% | 9.81% | – |
| Cc1ccc(Nc2nccc(N(C)c3ccc4c(C)n(C)nc4c3)n2)cc1S(N)(=O)=O [Pazopanib] (10000 nM) | – | 80.7% | 83.9% | 62.2% | 100% | 79.5% | 86.8% | – |
